Experiments:
Proteus mirabilis = assay: Metabolic labeling of living bacteria, click chemistry and fluorescence microscopy; type: cell-based; design: key: +: strains showing highly distinctive fluorescence on their membrane, indicative of an effective metabolic incorporation of the chemical reporter; −: the absence of labeling; details: compound 10 mM, 24 hours, fluorochrome-alkyne click 30 minutes
Klebsiella pneumoniae [1] = assay: as above; type: cell-based; design: key: +: strains showing highly distinctive fluorescence on their membrane, indicative of an effective metabolic incorporation of the chemical reporter; −: the absence of labeling; details: second of two entries (Table 1 order: Clinical strain), compound 10 mM, 24 hours, fluorochrome-alkyne click 30 minutes
Staphylococcus aureus = assay: as above; type: cell-based; design: key to labeling (fluorescence on membrane, metabolic incorporation of the chemical reporter): +: strains showing highly distinctive fluorescence on their membrane, indicative of an effective metabolic incorporation of the chemical reporter; −: the absence of labeling
Neisseria meningitidis = assay: as above; type: cell-based; design: key: +: strains showing highly distinctive fluorescence on their membrane, indicative of an effective metabolic incorporation of the chemical reporter; −: the absence of labeling; details: compound 10 mM, 24 hours, fluorochrome-alkyne click 30 minutes
Micrococcus luteus = assay: as above; type: cell-based; design: key to labeling (fluorescence on membrane, metabolic incorporation of the chemical reporter): +: strains showing highly distinctive fluorescence on their membrane, indicative of an effective metabolic incorporation of the chemical reporter; −: the absence of labeling
Staphylococcus epidermis = assay: as above; type: cell-based; design: key to labeling (fluorescence on membrane, metabolic incorporation of the chemical reporter): +: strains showing highly distinctive fluorescence on their membrane, indicative of an effective metabolic incorporation of the chemical reporter; −: the absence of labeling
Serratia marcescens [2] = assay: as above; type: cell-based; design: key: +: strains showing highly distinctive fluorescence on their membrane, indicative of an effective metabolic incorporation of the chemical reporter; −: the absence of labeling; details: first of two entries (Table 1 order: CIP102446), compound 10 mM, 24 hours, fluorochrome-alkyne click 30 minutes
[3] = test system: Stenotrophomonas maltophilia; assay: as above; type: cell-based; design: key: +: strains showing highly distinctive fluorescence on their membrane, indicative of an effective metabolic incorporation of the chemical reporter; −: the absence of labeling; details: compound 10 mM, 24 hours, fluorochrome-alkyne click 30 minutes
Listeria monocytogenes ½ = assay: as above; type: cell-based; design: key to labeling (fluorescence on membrane, metabolic incorporation of the chemical reporter): +: strains showing highly distinctive fluorescence on their membrane, indicative of an effective metabolic incorporation of the chemical reporter; −: the absence of labeling
[4] = test system: Listeria monocytogenes ½a; assay: as above; type: cell-based; design: key: +: strains showing highly distinctive fluorescence on their membrane, indicative of an effective metabolic incorporation of the chemical reporter; −: the absence of labeling; details: compound 10 mM, 24 hours, fluorochrome-alkyne click 30 minutes
Enterococcus faecalis = assay: as above; type: cell-based; design: key to labeling (fluorescence on membrane, metabolic incorporation of the chemical reporter): +: strains showing highly distinctive fluorescence on their membrane, indicative of an effective metabolic incorporation of the chemical reporter; −: the absence of labeling
Escherichia coli K12 = assay: as above; type: cell-based; design: key: +: strains showing highly distinctive fluorescence on their membrane, indicative of an effective metabolic incorporation of the chemical reporter; −: the absence of labeling; details: compound 10 mM, 24 hours, fluorochrome-alkyne click 30 minutes
[5] = test system: Staphylococcus aureus aureus; assay: as above; type: cell-based; design: key to labeling (fluorescence on membrane, metabolic incorporation of the chemical reporter): +: strains showing highly distinctive fluorescence on their membrane, indicative of an effective metabolic incorporation of the chemical reporter; −: the absence of labeling
Providenda stuartii = assay: as above; type: cell-based, Providencia stuartii; design: key: +: strains showing highly distinctive fluorescence on their membrane, indicative of an effective metabolic incorporation of the chemical reporter; −: the absence of labeling; details: compound 10 mM, 24 hours, fluorochrome-alkyne click 30 minutes
Serratia marcescens [6] = assay: as above; type: cell-based; design: key: +: strains showing highly distinctive fluorescence on their membrane, indicative of an effective metabolic incorporation of the chemical reporter; −: the absence of labeling; details: second of two entries (Table 1 order: Clinical strain), compound 10 mM, 24 hours, fluorochrome-alkyne click 30 minutes
[7] = test system: Salmonella Typhimurium 12023; assay: as above; type: cell-based; design: key: +: strains showing highly distinctive fluorescence on their membrane, indicative of an effective metabolic incorporation of the chemical reporter; −: the absence of labeling; details: compound 10 mM, 24 hours, fluorochrome-alkyne click 30 minutes
Neisseria gonorrhoeae = assay: as above; type: cell-based; design: key to labeling (fluorescence on membrane, metabolic incorporation of the chemical reporter): +: strains showing highly distinctive fluorescence on their membrane, indicative of an effective metabolic incorporation of the chemical reporter; −: the absence of labeling
[8] = test system: Pseudomonas fluorescens Migula; assay: as above; type: cell-based; design: key: +: strains showing highly distinctive fluorescence on their membrane, indicative of an effective metabolic incorporation of the chemical reporter; −: the absence of labeling; details: compound 10 mM, 24 hours, fluorochrome-alkyne click 30 minutes
Vibrio cholerae = assay: as above; type: cell-based; design: key: +: strains showing highly distinctive fluorescence on their membrane, indicative of an effective metabolic incorporation of the chemical reporter; −: the absence of labeling; details: compound 10 mM, 24 hours, fluorochrome-alkyne click 30 minutes
Klebsiella pneumoniae [9] = assay: as above; type: cell-based; design: key: +: strains showing highly distinctive fluorescence on their membrane, indicative of an effective metabolic incorporation of the chemical reporter; −: the absence of labeling; details: first of two entries (Table 1 order: CIP 101114), compound 10 mM, 24 hours, fluorochrome-alkyne click 30 minutes
[10] = test system: Legionella pneumophila sg6; type: cell-based; design: key: +: strains showing highly distinctive fluorescence on their membrane, indicative of an effective metabolic incorporation of the chemical reporter; −: the absence of labeling; details: compound 10 mM, 24 hours, fluorochrome-alkyne click 30 minutes
Escherichia coli O86 = assay: Metabolic labeling of living bacteria, click chemistry and fluorescence microscopy; type: cell-based; design: key: +: strains showing highly distinctive fluorescence on their membrane, indicative of an effective metabolic incorporation of the chemical reporter; −: the absence of labeling; details: compound 10 mM, 24 hours, fluorochrome-alkyne click 30 minutes
[11] = compound 10 mM, 24 hours, fluorochrome-alkyne click 30 minutes

Question: With `[N-]=[N+]=NC[C@@H](O)[C@@H](O)[C@H](O)[C@H](O)CC(=O)C(=O)O` [Kdo-N3, 8-azido-3,8-dideoxy-D-manno-octulosonate] as the compound, how does the “labeling (fluorescence on membrane, metabolic incorporation of the chemical reporter)” value (“labeling” below) (Proteus mirabilis) read?
Answer: Its value is “+”.

Question: And the “labeling” value (Klebsiella pneumoniae [1])?
Answer: Its value is “+”.

Question: And the “assimilation by the bacteria (in words)” value (Staphylococcus aureus)?
Answer: The value was “did not assimilate”.

Question: And the “labeling” value (Staphylococcus aureus; [11])?
Answer: Its value is “−”.

Question: And the “labeling” value (Neisseria meningitidis)?
Answer: Its value is “+”.

Question: And the “assimilation by the bacteria (in words)” value (Micrococcus luteus)?
Answer: Its value is “did not assimilate”.

Question: And the “labeling” value (Micrococcus luteus; [11])?
Answer: Its value is “−”.

Question: And the “assimilation by the bacteria (in words)” value (Staphylococcus epidermis)?
Answer: Its value is “did not assimilate”.

Question: And the “labeling” value (Staphylococcus epidermis; [11])?
Answer: Its value is “−”.

Question: What about the “labeling” value (Serratia marcescens [2]) of the same compound?
Answer: The value was “+”.

Question: What about the “labeling” value [3] of the same compound?
Answer: The value was “+”.

Question: And the “assimilation by the bacteria (in words)” value (Listeria monocytogenes ½; Listeria monocytogenes (strain not given))?
Answer: Its value is “did not assimilate”.

Question: And the “labeling” value (Listeria monocytogenes ½; Listeria monocytogenes ½, compound 10 mM, 24 hours, fluorochrome-alkyne click 30 minutes)?
Answer: Its value is “−”.

Question: What about the “labeling” value [4] of the same compound?
Answer: The value was “−”.

Question: And the “assimilation by the bacteria (in words)” value (Enterococcus faecalis)?
Answer: Its value is “did not assimilate”.

Question: What about the “labeling” value (Enterococcus faecalis; [11]) of the same compound?
Answer: The value was “−”.

Question: And the “labeling” value (Escherichia coli K12)?
Answer: The value was “+”.

Question: And the “assimilation by the bacteria (in words)” value [5]?
Answer: Its value is “did not assimilate”.

Question: And the “labeling” value [5, 11]?
Answer: Its value is “−”.

Question: What about the “labeling” value (Providenda stuartii) of the same compound?
Answer: Its value is “+”.

Question: What about the “labeling” value (Serratia marcescens [6]) of the same compound?
Answer: Its value is “+”.

Question: And the “labeling” value [7]?
Answer: The value was “+”.

Question: What about the “assimilation by the bacteria (in words)” value (Neisseria gonorrhoeae) of the same compound?
Answer: Its value is “did not assimilate”.

Question: What about the “labeling” value (Neisseria gonorrhoeae; [11]) of the same compound?
Answer: Its value is “−”.

Question: What about the “labeling” value [8] of the same compound?
Answer: Its value is “+”.

Question: What about the “labeling” value (Vibrio cholerae) of the same compound?
Answer: The value was “+”.

Question: And the “labeling” value (Klebsiella pneumoniae [9])?
Answer: Its value is “+”.

Question: What about the “labeling” value [10] of the same compound?
Answer: Its value is “+”.

Question: And the “labeling” value (Escherichia coli O86)?
Answer: Its value is “+”.

Reference: patent publication US11199542B2, “Method for labeling specifically living bacteria comprising the use of modified non endogenous monosaccharide compounds” (priority 2015, dated 2021)
